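How tested: cells in 96-well plates exposed to compound for 48 hours at five concentrations. The concentration for 50% growth inhibition is given as GI50. Definition used: TGI = concentration required for complete inhibition of growth.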
Key:
Assay in all cases: NCI tumour cell line growth inhibition, 48 h
K-562 leukemia = tested on: K-562 leukemia
ACHN renal = tested on: ACHN renal
SF-539 CNS = tested on: SF-539 CNS
NCI-H226 lung = tested on: NCI-H226 lung
NCI-H522 lung = tested on: NCI-H522 lung
UACC-62 melanoma = tested on: UACC-62 melanoma
HOP-92 NSCLC = tested on: HOP-92 NSCLC
BT-549 breast = tested on: BT-549 breast
NCI-H23 lung = tested on: NCI-H23 lung
SK-MEL-28 melanoma = tested on: SK-MEL-28 melanoma
IGROV1 ovarian = tested on: IGROV1 ovarian
DU-145 prostate = tested on: DU-145 prostate
SF-268 CNS = tested on: SF-268 CNS
MOLT-4 leukemia = tested on: MOLT-4 leukemia
OVCAR-5 ovarian = tested on: OVCAR-5 ovarian
U251 CNS = tested on: U251 CNS
CAKI-1 renal = tested on: CAKI-1 renal
A549 NSCLC = tested on: A549 NSCLC
MALME-3M melanoma = tested on: MALME-3M melanoma
MDA-MB-231 breast = tested on: MDA-MB-231 breast
SK-MEL-5 melanoma = tested on: SK-MEL-5 melanoma
EKVX NSCLC = tested on: EKVX NSCLC
RXF 393 renal = tested on: RXF 393 renal
SK-OV-3 ovarian = tested on: SK-OV-3 ovarian
SF-295 CNS = tested on: SF-295 CNS
PC-3 prostate = tested on: PC-3 prostate
786-0 renal = tested on: 786-0 renal
TK-10 renal = tested on: TK-10 renal
SNB-75 CNS = tested on: SNB-75 CNS
UACC-257 melanoma = tested on: UACC-257 melanoma
HS 578T breast = tested on: HS 578T breast
M14 melanoma = tested on: M14 melanoma
SK-MEL-2 melanoma = tested on: SK-MEL-2 melanoma
RPMI-8226 leukemia = tested on: RPMI-8226 leukemia
HL-60(TB) leukemia = tested on: HL-60(TB) leukemia
A498 renal = tested on: A498 renal
SW-620 colon = tested on: SW-620 colon
HCT-116 colon = tested on: HCT-116 colon
OVCAR-8 ovarian = tested on: OVCAR-8 ovarian
SNB-19 CNS = tested on: SNB-19 CNS
UO-31 renal = tested on: UO-31 renal
HOP-62 NSCLC = tested on: HOP-62 NSCLC
MDA-MB-435 = tested on: MDA-MB-435
NCI-H460 lung = tested on: NCI-H460 lung
SN12C renal = tested on: SN12C renal
NCI/ADR-RES ovarian = tested on: NCI/ADR-RES ovarian
LOX IMVI melanoma = tested on: LOX IMVI melanoma
HCT-15 colon = tested on: HCT-15 colon
MDA-MB-468 breast = tested on: MDA-MB-468 breast
MCF7 breast = tested on: MCF7 breast
HCC-2998 colon = tested on: HCC-2998 colon
COLO 205 colon = tested on: COLO 205 colon

## O=C(NN1C(=O)/C(=C/C=C/c2ccc([N+](=O)[O-])o2)SC1=S)c1cccc(O)c1
K-562 leukemia
  GI50: 222 nM
  TGI: 1100 nM
ACHN renal
  GI50: 1640 nM
  TGI: 3000 nM
SF-539 CNS
  GI50: 1580 nM
  TGI: 2950 nM
NCI-H226 lung
  GI50: 393 nM
  TGI: 1580 nM
NCI-H522 lung
  GI50: 185 nM
  TGI: 367 nM
UACC-62 melanoma
  GI50: 587 nM
  TGI: 1930 nM
HOP-92 NSCLC
  GI50: 1230 nM
  TGI: 2820 nM
BT-549 breast
  GI50: 492 nM
  TGI: 1790 nM
NCI-H23 lung
  GI50: 1010 nM
  TGI: 2260 nM
SK-MEL-28 melanoma
  GI50: 1660 nM
  TGI: 3030 nM
IGROV1 ovarian
  GI50: 1390 nM
  TGI: 2690 nM
DU-145 prostate
  GI50: 2120 nM
  TGI: 4480 nM
SF-268 CNS
  GI50: 1950 nM
  TGI: 4810 nM
MOLT-4 leukemia
  GI50: 295 nM
  TGI: 1280 nM
OVCAR-5 ovarian
  GI50: 1850 nM
  TGI: 3380 nM
U251 CNS
  GI50: 1390 nM
  TGI: 2890 nM
CAKI-1 renal
  GI50: 1570 nM
  TGI: 2920 nM
A549 NSCLC
  GI50: 2920 nM
  TGI: 11600 nM
MALME-3M melanoma
  GI50: 205 nM
  TGI: 447 nM
MDA-MB-231 breast
  GI50: 253 nM
  TGI: 737 nM
SK-MEL-5 melanoma
  GI50: 662 nM
  TGI: 1950 nM
EKVX NSCLC
  GI50: 1490 nM
  TGI: 2900 nM
RXF 393 renal
  GI50: 1250 nM
  TGI: 2520 nM
SK-OV-3 ovarian
  GI50: 1910 nM
  TGI: 4310 nM
SF-295 CNS
  GI50: 2120 nM
  TGI: 5010 nM
PC-3 prostate
  GI50: 1880 nM
  TGI: 4180 nM
786-0 renal
  GI50: 1620 nM
  TGI: 3020 nM
TK-10 renal
  GI50: 1780 nM
  TGI: 3490 nM
SNB-75 CNS
  GI50: 1280 nM
  TGI: 5870 nM
UACC-257 melanoma
  GI50: 1740 nM
  TGI: 3540 nM
HS 578T breast
  GI50: 2130 nM
  TGI: 7700 nM
M14 melanoma
  GI50: 282 nM
  TGI: 921 nM
SK-MEL-2 melanoma
  GI50: 1070 nM
  TGI: 2440 nM
RPMI-8226 leukemia
  GI50: 387 nM
  TGI: 2190 nM
HL-60(TB) leukemia
  GI50: 2120 nM
  TGI: 5490 nM
A498 renal
  GI50: 19700 nM
  TGI: 33800 nM
SW-620 colon
  GI50: 209 nM
  TGI: 485 nM
HCT-116 colon
  GI50: 233 nM
  TGI: 630 nM
OVCAR-8 ovarian
  GI50: 571 nM
  TGI: 2540 nM
SNB-19 CNS
  GI50: 1810 nM
  TGI: 3560 nM
UO-31 renal
  GI50: 1410 nM
  TGI: 2720 nM
HOP-62 NSCLC
  GI50: 1730 nM
  TGI: 3190 nM
MDA-MB-435
  GI50: 675 nM
  TGI: 2110 nM
NCI-H460 lung
  GI50: 1630 nM
  TGI: 3710 nM
SN12C renal
  GI50: 256 nM
  TGI: 1150 nM
NCI/ADR-RES ovarian
  GI50: 1960 nM
  TGI: 4630 nM
LOX IMVI melanoma
  GI50: 167 nM
  TGI: 323 nM
HCT-15 colon
  GI50: 167 nM
  TGI: 371 nM
MDA-MB-468 breast
  GI50: 1710 nM
  TGI: 3400 nM
MCF7 breast
  GI50: 1240 nM
  TGI: 2960 nM
HCC-2998 colon
  GI50: 1740 nM
  TGI: 3150 nM
COLO 205 colon
  GI50: 1600 nM
  TGI: 3080 nM

Reference: PubChem BioAssay (NCI)
